Consider seven compounds from paper PMC6017400, “Investigation into Improving the Aqueous Solubility of the Thieno[2,3-b]pyridine Anti-Proliferative Agents” (Molecules : A Journal of Synthetic Chemistry and Natural …, 2018).

Values after ≈ are worked out from the molar mass of the structure shown. Values joined by “and” are separate entries in the source; they are usually repeats but may differ in a detail not shown here. Equal entries are not always repeated. Where two headings read alike, the source gives them in different places.

Data set [1] is described as follows: Aqueous thermodynamic solubility by HPLC. In kind it is physicochemical. The following applies: for solubility thermodynamic at 15 min / solubility at 15 min: thermodynamic from solid; for solubility thermodynamic at 15 min / Experimental S / solubility at 15 min: water; for solubility thermodynamic at 15 min: read-out: Experimental S. The procedure:
The aqueous thermodynamic solubility of derivatives 1–7 were measured using a standard HPLC (High Performance Liquid Chromatography) procedure. Solubility is defined as the amount of substance that passes into solution in order to establish the equilibrium at constant temperature and pressure and, thus, produce a saturated solution. The water solubility (log S) and log P were calculated for comparison.
Intrinsic aqueous drug solubility was determined by forming a supersaturated solution of the drug compound in water. The suspension was sonicated for 15 min and centrifuged at 13,000 rpm for 6 min. After 15 min the supernatant was decanted and the total drug content solubilised was analysed using reverse phase HPLC. The solution was analysed using an Agilent 1260 Infinity/DAD (100–900 nm) (Waldbronn, Germany) with a Zorbax eclipse XDB ([…], 4.6 mm × 150 mm) (Waldbronn, Germany) column. The mobile phase comprised of 80:20 acetonitrile: H2O containing 45 mM ammonium formate buffered to pH 3.5 with formic acid. Flow rate was 1 mL/min with 5 μL injection volume.

Data set [2] can be described thus: Drug loading into Ch5 polymer (UV-VIS). To be noted: 6 mg/mL, 10:1 feed ratio. In kind it is physicochemical. On the procedure:
The maximum compound solubilisation observed was 6 mg/mL at a 10:1 ratio, with 0.59 mg/mL drug encapsulation being achieved.
Polymer solutions of 1 mg/mL, 3 mg/mL, and 6 mg/mL were made up in deionised water and probe sonicated for 10 min to ensure aggregation of the self-assemblies was achieved. Compound 2 was added in 1:1, 5:1, and 10:1 initial drug: excipient weight ratios and the drug-polymer solutions were probe sonicated for a further 10 min to ensure maximum encapsulation was achieved. After cooling to room temperature, the solutions were filtered using 0.45 µm syringe filters (with prefilters) to ensure any excess un-encapsulated drugs were removed. Drug quantification was carried out using UV-VIS spectroscopy with the samples diluted in DMSO. Absorbance was measured at 304 nm. Calibration was run from 0.0039–0.0313 mg/mL with R^2 = 0.992 (see Supplementary Materials Figure S3 for the calibration plot).

Data set [3] deals with MDA-MB-231. The arrangement: method as in PMID 22698703, doi:10.1039/c3md00320e, PMID 26966420. The following applies: cited from earlier work.
In data set [4] the test system is human pancreatic adenocarcinoma (BxPC-3) cells. Nature of the data set: MTT cytotoxicity assay. In kind it is cell-based. The procedure:
Finally the viability was measured with the MTT assay in human pancreatic adenocarcinoma (BxPC-3) cells using 2 with and without the polymer encapsulation; the results are shown in Figure 6.
An MTT assay was carried out using human pancreatic adenocarcinoma (BxPC-3) cells. Cells were cultured in RPMI medium containing 10% FBS and 1% penicillin streptomycin (Penstrep). […] The experiments were performed in triplicate (n = 3) using eight wells per plate for each data point. […] Polymeric self-assemblies were formed by probe sonicating the polymers in sterile water (5 mg/mL). The polymer stock solutions were diluted to 0.005 mg/mL with media. A drug stock solution (20 mg/mL) was prepared by diluting compound 2 in DMSO. The formulations were prepared by addition of compound 2 into 0.005 mg/mL polymer solution.
On the technique in general: Tetrazolium dyes change colour on reduction, which living cells bring about.

Data set [5] relates to MDA-MB-231 (breast) human tumour cell line. The arrangement: method as in PMID 26966420. The following applies: read-out: IC50, thymidine uptake assay; cited from earlier work.
Data set [6] concerns HCT116. Also noted: method as in PMID 22698703, doi:10.1039/c3md00320e, PMID 26966420. The following applies: cited from earlier work.
The nature of data set [7]: In vitro drug release from polymer into PBS. In kind it is physicochemical. The following applies: 37 °C. The procedure:
The formulation (1 mL) was pipetted inside dialysis tubing (MW cut off = 12–14 kDa) and dialysed against PBS in sink (100 mL, 0.2 M) at 37 °C with stirring. At various time points 1 mL of the external PBS was extracted and replaced with 1 mL of fresh PBS. The presence of drug in the collected PBS was determined using UV-VIS spectroscopy as before.

Data set [8] has as its system HCT116 (colon) human tumour cell line. Nature of the data set: Thymidine uptake cell proliferation assay. Type of data set: cell-based. To be noted: 1 μM, untreated cells = 100% growth. On the procedure: (§1) Thymidine uptake was used for viability testing on the MDA-MB-231 (breast) and HCT116 (colon) human tumour cell lines. This measurement reflects the anti-proliferative/cytotoxic effects of the compounds. A concentration of 1 μM was used. […] To corroborate these findings, derivatives 3, 4, and 6 were tested against the National Cancer Institute’s human tumour cell line panel (NCI60). […] The leukaemia cell lines K-562 (45.5% growth) and SR (47.7% growth) were the most affected followed by the melanoma MDA-MB-435 (53.9% growth) cell line. This is an interesting observation since the thieno[2,3-b]pyridines are often active against leukaemia cells and the MDA-MB-435 cell line, in particular.
(§2) As described in detail previously cell proliferation was measured using a thymidine incorporation assay by seeding 3000 cells in each well using 96-well plates with varying concentrations of inhibitors for three days. Experiments were performed in triplicate with a minimum of two experimental repeats. Briefly, 0.04 µCi of ^3H-thymidine was added to each well and incubated for five hours, after which the cells were gathered onto glass fibre filters using an automated TomTec harvester. Filters were incubated with Betaplate Scint and thymidine incorporation determined with Trilux/Betaplate counter showing the percentage of cells incorporated with ^3H-thymidine into the DNA helix.

The subject of data set [9] is MDA-MB-231 (breast) human tumour cell line. Nature of the data set: Thymidine uptake cell proliferation assay. The following applies: 1 μM, untreated cells = 100% growth. Type of data set: cell-based. On the procedure:
as §1, §2

The subject of data set [10] is NCI60 human tumour cell line panel. Nature of the data set: NCI60 human tumour cell line panel growth inhibition (SRB). In kind it is cell-based. The procedure: as §1
(§3) Furthermore, derivatives 3, 4, and 6 were sent to the National Cancer Institute’s Developmental Therapeutic Program (DTP) where they were screened against a panel of sixty human tumour cell lines (NCI60, for further information see [18, 29, 30] and a complete description in the Supplementary Materials section).
(§4) Figure S3. Compound 2 UV-vis calibration in DMSO at 304 nm.
(§5) NCI's 60-cell line panel growth inhibition assay
The NCI's human 60-cell lines were grown in RPMI 1640 medium containing 5% FBS and 2mM L-glutamine. Cells were inoculated into 96-well plates at plating densities 5000–40 000 cells per well, based on the doubling time of individual cell lines. Plates were then incubated at 37 °C, 5% CO2, 95% air and 100% relative humidity for 24 h prior to addition of tested compounds. After 24 h, two plates of each cell line were fixed in situ with trichloroacetic acid (TCA), to represent a measurement of the cell population for each cell line at the time of tested compound addition. Tested compounds were solubilized in DMSO at a concentration 400 times that of the desired final maximum test concentration and stored frozen prior to use. An aliquot of each frozen tested concentrate was thawed and diluted to twice the desired final maximum test concentration with complete medium containing 50 μg mL-1 gentamicin. 100 μL aliquot of the tested drug diluted solution was added to appropriate wells containing 100 μL of medium, resulting in the required final drug doses. Following tested compound addition, plates were incubated for additional 48 h. The assay was terminated by the addition of cold TCA for adherent cells. Cells were fixed in situ by addition of 50 μL of cold 50% (w/v) TCA (final concentration, 10% TCA) and incubated for 60 min at 4 °C. The supernatant was discarded, and plates were washed 5 times with water and air dried. Sulforhodamine B (SRB) solution (100 μL), 0.4%(w/v) in 1% acetic acid was added to each well, and plates were incubated for 10 min at rt. […] The bound stain was subsequently solubilized with 10 mM Trizma base, and the absorbance was measured on a plate reader at 515 nm. […]

Data set [11] deals with leukaemia cell line K-562. Nature of the data set: NCI60 panel growth inhibition (SRB). Type of data set: cell-based, human. The following applies: K-562, NCI60. On the procedure: as §1, §3, §4, §5
(§6) The NCI's human 60-cell lines were grown in RPMI 1640 medium containing 5% FBS and 2mM L-glutamine. Cells were inoculated into 96-well plates at plating densities 5000–40 000 cells per well, based on the doubling time of individual cell lines. Plates were then incubated at 37 °C, 5% CO2, 95% air and 100% relative humidity for 24 h prior to addition of tested compounds. After 24 h, two plates of each cell line were fixed in situ with trichloroacetic acid (TCA), to represent a measurement of the cell population for each cell line at the time of tested compound addition. Tested compounds were solubilized in DMSO at a concentration 400 times that of the desired final maximum test concentration and stored frozen prior to use. […] The bound stain was subsequently solubilized with 10 mM Trizma base, and the absorbance was measured on a plate reader at 515 nm. […]

Data set [12] deals with melanoma MDA-MB-435 cell line. Nature of the data set: NCI60 panel growth inhibition (SRB). Type of data set: cell-based, human. The following applies: MDA-MB-435, NCI60. On the procedure:
as §1, §3, §4, §5, §6

Data set [13] has as its system leukaemia cell line SR. Nature of the data set: NCI60 panel growth inhibition (SRB). In kind it is cell-based, human. The procedure: as §1, §3, §4, §5, §6
Setting [14] is: HPLC, read-out: Experimental S, log S (converted).

By GI50 is commonly meant the concentration giving 50% growth inhibition. By IC50 is commonly meant the concentration that inhibits the measured activity by half. A word on the viability: it is a per cent measure of how many cells are alive, often set against a control.

For `Nc1c(C(=O)Nc2ccccc2)sc2nc3c(cc12)C(=O)CCC3` [Compound 1, 3-amino-5-oxo-N-phenyl-5,6,7,8-tetrahydrothieno[2,3-b]quinoline-2-carboxamide], in data set [1] (HPLC), the solubility thermodynamic at 15 min was 1.21 µg/mL (≈ 3.59 µM) and the “Experimental S” value stood at 1.2 µg/mL. In data set [1] (setting [14]), the solubility at 15 min was 3.98 µM.
Take `Cc1c(Cl)cccc1NC(=O)c1sc2nc3c(cc2c1N)C(=O)CCC3` [Compound 2]: the solubility thermodynamic at 15 min in data set [1] (HPLC) is 3.53 µg/mL (≈ 9.15 µM). Also, the solubility at 15 min in data set [1] (setting [14]) was 10 µM. For the same compound, in data set [2], the “drug encapsulation (maximum) in Ch5 polymer” value was 0.59 mg/mL. In addition, the GI50 in [3] was 141 nM; in data set [6], 67 nM. Besides, the IC50 in [4] (BXPC-3, 24 h exposure, read-out: IC50, BxPC-3 viability (MTT)) was 2.5 µg/mL and 6.48 µM; in [5] it was 164 nM. In addition, in [4] (BxPC-3, 5 μg/mL (12.95 μM), read-out: cell viability (activity remaining)), the viability at 12.95 µM is about 30%. For the same compound, the “time to plateau of release from the polymer ensemble into the aqueous phase” value in data set [7] is ~ 40 min.
For `Nc1c(C(=O)Nc2ccccc2)n(CCCN2CCOCC2)c2nc3c(cc12)CCCC3` [Compound 3], in data set [1], the “solubility increase as compared to 1” value is recorded as “three orders of a magnitude”. In data set [1], this compound returned a water solubility of 1300 µg/mL (≈ 3000 µM). Also, the “Experimental S” value in data set [1] (HPLC) was 1339.8 µg/mL and 1336.7 µg/mL. Also, the solubility at 15 min was 3160 µM in [1] (setting [14]) and about 1300 µg/mL in data set [1] (read-out: water solubility). Also, the “average relative growth, thymidine assay” value in data set [8] turned out to be 90.3%; in [9], 99.5%. Also, in data set [10], the “activity against NCI60 panel” value is listed as “very modest or no activity”.
As to `Nc1c(C(=O)Nc2ccccc2)n(CCCc2ccccc2)c2nc3c(cc12)CCCC3` [Compound 4], the solubility thermodynamic at 15 min in data set [1] (HPLC) came to 0.2 µg/mL (≈ 0.471 µM). Moreover, the solubility at 15 min in [1] (setting [14]) was 0.501 µM. The figures for the “average relative growth, thymidine assay” value in [8] and in [9] were 103.6% and 105.4%, respectively. The “activity against NCI60 panel” value in [10] is recorded as “very modest or no activity”.
`Cn1c(C(=O)Nc2cccc3ccccc23)c(N)c2cc3c(nc21)CCCC3` [Compound 5]: the solubility thermodynamic at 15 min in [1] (HPLC) stood at 0.18 µg/mL (≈ 0.486 µM). For the same compound, in [1] (setting [14]), the solubility at 15 min is 0.501 µM. Further, the “average relative growth, thymidine assay” value came out at 102.1% in [8] and 97.2% in [9].
On to `Cc1cccc(NC(=O)c2c(N)c3cc4c(nc3n2C)CCCC4)c1C` [Compound 6], for which the solubility thermodynamic at 15 min in data set [1] (HPLC) amounted to 0.76 µg/mL (≈ 2.18 µM). Besides, in data set [1] (setting [14]), the solubility at 15 min was 2 µM. Besides, the results for the “average relative growth, thymidine assay” value in data set [8] and in data set [9] were 104.2% and 106.0%, respectively. In [10], the “activity against NCI60 panel” value is recorded as “very modest or no activity”. Moreover, the “overall relative growth for the 60 cell lines” value in data set [10] (untreated cells = 100% growth) stood at 77%. Further, the growth in [11] was determined as 45.5%; in data set [12], 53.9%; in data set [13], 47.7%.
Turning to `Cn1c(C(=O)Nc2ccccc2)c(N)c2cc3c(nc21)CCCCCC3` [Compound 7], in data set [1] (HPLC), the solubility thermodynamic at 15 min was found to be 0.61 µg/mL (≈ 1.75 µM). Besides, the solubility at 15 min in data set [1] (setting [14]) is 1.58 µM. For the same compound, the “average relative growth, thymidine assay” value in data set [8] is on record as 99.0%; in data set [9], 100.7%.
